Experimental findings from US7030158B2, “Therapeutic compounds” (Ardenia Investments Ltd., priority 2002, dated 2006) are described below.

One series relates to rats. The settings on record: rat, in vivo, ip, 100 mg/kg.
Series [1] has as its system Human Breast Adenocarcinoma Cell Line MDA-MB-231. Put plainly: Drug cytotoxicity testing (viable cell count, trypan blue exclusion) in MDA-MB-231 cultures. Format: cell-based. The note with it: for Tumor Cell Number: compound or drug alone 10^−7 mol/L (100 nM), medium with 5% FBS. As for the experimental part:
MDA-MB-231 cells were propagated in MEM culture medium with 2 mM L-glutamine, 10% heat-inactivated fetal bovine serum (FBS) and antibiotics. DU 145 cells were cultured in MEM culture medium containing 2 mM L-glutamine, 1 mM sodium pyruvate, 10% FBS and antibiotics. SKOV-3 cells were cultured in McCoy's 5A culture medium, supplemented with 1,5 mM L-glutamine, 10% FBS and antibiotics. A549 cells were cultured in Ham's F-12 culture medium with 1 mM L-glutamine, 10% FBS and antibiotics.
The cell cultures in cultivation plates were allowed to adhere for 24 hour of incubation. […] The cells were incubated for 2 consecutive days. At the end of the incubation period adherent cells were detached by trypsinization and the number of viable cells was counted using trypan blue exclusion test and a hemocytometer. All data were derived from an average of three determinations each in six replicates. The results were expressed as mean cell number±SE and the differences between control and test series evaluated by means of Student's t-test. The drug cytotoxicity was evaluated based on the extent of cell growth inhibition.
Therefore an average of negative controls was calculated. […] Therefore an average of positive controls was calculated (for each antibiotic).

Experimental for rats: A single dose i.p. toxicity study in rats was carried out. […] The minimal lethal dose is thus above 100 mg/kg body weight for these compounds.

Regarding `CC1=C(/C=C/C(C)=C/C=C/C(C)=C/C(=O)N[C@@H](CS(=O)O)C(=O)O)C(C)(C)CCC1` (stereo in doubt) [I-2, N-(all-trans-Retinoyl)-L-cysteinesulfinic acid], the mortality entry with rats is listed as “did not produce mortality”. Same read-out and setting: as for `CC1=C(/C=C/C(C)=C/C=C/C(C)=C/C(=O)N[C@@H](CS(=O)(=O)O)C(=O)O)C(C)(C)CCC1` [I-1, N-(all-trans-Retinoyl)-L-cysteic acid], the entry is “did not produce mortality”. `COC(=O)[C@H](CCS(=O)(=O)O)NC(=O)/C=C(C)/C=C/C=C(C)/C=C/C1=C(C)CCCC1(C)C` [I-3a]: in series [1] (compound (sodium salt) alone, concentration range 10^−9 to 10^−7 M, listed as II-3a), the “cell growth inhibition achieved when increasing the concentration” value is recorded as approximately 49%. As for `CC1=C(/C=C/C(C)=C/C=C/C(C)=C\C(=O)N[C@@H](CS(=O)(=O)O)C(=O)OC(C)C)C(C)(C)CCC1` [II-1c], in series [1], the “Tumor Cell Number” value was 29.0 ± 1.26 × 10^3. Still for that read-out and setting: as for `CCCCOC(=O)[C@H](CS(=O)(=O)O)NC(=O)\C=C(C)/C=C/C=C(C)/C=C/C1=C(C)CCCC1(C)C` [II-1e], the entry is “(26.0 ± 1.27) × 10^3, cell growth inhibition”.

Take `CC1=C(/C=C/C(C)=C/C=C/C(C)=C\C(=O)N[C@@H](CCS(=O)(=O)O)C(=O)O)C(C)(C)CCC1` [II-3, N-(13-cis-Retinoyl)-L-homocysteic acid]: the mortality entry with rats was “did not produce mortality”.
